From patent US20180118718A1, “Substituted Quinoxaline Derivatives” (Selvita S.A., priority 2015, published 2018)
Where a name gives a salt, the structure may show the parent alone.

Target: T1, Human recombinant His-tagged PFKFB3 (Homo sapiens, UniProt Q16875)
T1 construct: His; made in house
Assay: PFKFB3 IC50 Determination Assay (in vitro kinase assay, modified ADP-Glo system)
Format: biochemical
Details: ATP 20 μM and fructose-6-phosphate 2 μM (Km), 25 nM PFKFB3, 2 h, rt, ADP-Glo luminescence
Experimental: PFKFB3 IC50 Determination Assay
In vitro kinase assay used to determine IC50 values for tested inhibitors is based on a modified ADP-Glo™ system (Promega) and consists of two parts:
1. Kinase reaction—performed in optimized conditions. At this step PFKFB3 phosphorylates its substrate Fructose-6-phosphate using ATP as a source of phosphate to produce Fructose-2,6-bisphosphate and ADP. Reaction is performed at Km values for ATP and substrate using optimized buffer composition and time of the reaction. Human recombinant His-tagged PFKFB3 (PFKFB3 BATCH II SEC) with confirmed activity is produced and purified in-house. 2. Detection of ADP as a product of the reaction using ADP-Glo™ system. This part is conducted by using the commercially available kit ADP-Glo™ Kinase Assay (Promega, cat. No# V9103) according to manufacturer's instruction, modified by 5x dilutions of assay reagents (both ADP-Glo™ Reagent and Kinase Detection Solution).
Test compounds are dissolved in DMSO and then transferred to the V-bottom 96-well plate.
15 μL per well of Mix 1 is transferred to assay wells of 96-well white plate. […] Total reaction volume is 30 μL per well. Samples are tested in duplicates. Final concentration of DMSO in the reaction is 6.7%. Conditions needed for performing PFKFB3 (PFKFB3 BATCH II SEC) in vitro kinase assay are given below:
This protocol is based on Technical Bulletin, ADP-Glo™ Kinase Assay (Promega) and is adapted to 96-well plate containing 30 μL reaction mixture:
30 μL of 5x diluted ADP-Glo™ Reagent is added to each well of 96-well plate containing 30 μL of reaction mixture. The plate is incubated for 90 minutes on a shaker at RT. 60 μL of 5x diluted Kinase Detection Solution is added to each well of 96-well plate containing 60 μL of the solution (ratio of kinase reaction volume to ADP-Glo™ Reagent volume to Kinase Detection Solution volume is maintained at 1:1:2). Plate is incubated for 40 minutes on a shaker at RT, protected from light. Luminescence is measured in the plate reader Synergy 2 (BioTek).
Luminescent readouts for compounds tested in 10 concentrations (routinely from 100 μM to […], […] serial dilutions) in duplicates, as well as for positive control, are first normalized to no-substrate negative control by its subtraction. In the next step, % of normalized positive control is calculated for each data point and plotted against test compound concentration:
% of control percent of positive control normalized to no-substrate negative control Lumcpd luminescence of test compound Lumneg luminescence of no-substrate negative control Lumpos luminescence of positive control
IC50 parameter is determined by the GraphPad Prism 5.0 software [log(inhibitor) vs. response −Variable slope (four parameters)].

T1 sequence (Q16875 whole entry): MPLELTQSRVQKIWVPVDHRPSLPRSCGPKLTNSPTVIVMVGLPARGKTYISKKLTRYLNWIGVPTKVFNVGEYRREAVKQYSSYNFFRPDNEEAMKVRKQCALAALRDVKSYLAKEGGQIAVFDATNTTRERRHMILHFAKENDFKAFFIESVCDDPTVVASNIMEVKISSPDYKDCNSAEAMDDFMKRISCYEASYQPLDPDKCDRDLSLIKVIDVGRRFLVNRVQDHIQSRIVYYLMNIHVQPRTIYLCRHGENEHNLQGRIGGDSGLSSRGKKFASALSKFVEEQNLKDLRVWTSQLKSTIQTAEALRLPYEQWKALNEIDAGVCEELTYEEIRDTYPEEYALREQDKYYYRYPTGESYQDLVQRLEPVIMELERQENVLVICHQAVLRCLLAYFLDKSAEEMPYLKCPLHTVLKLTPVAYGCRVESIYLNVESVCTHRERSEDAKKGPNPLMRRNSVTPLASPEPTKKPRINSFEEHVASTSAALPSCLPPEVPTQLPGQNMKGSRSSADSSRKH

SMILES	IC50 [nM]
Cc1csc2ccc(-c3cc(Nc4cnccc4C(N)=O)cc4nccnc34)cc12 [Example 205, 3-{[8-(3-Methyl-1-benzothiophen-5-yl)quinoxalin-6-yl]amino}pyridine-4-carboxamide]	1 to 1000
CN1CCOC(CNC(=O)c2ccncc2Nc2cc(-c3ccc4ccn(C)c4c3)c3nccnc3c2)C1 (stereo not shown) [Example 137, 3-{[8-(1-methyl-1H-indol-6-yl)quinoxalin-6-yl]amino}-N-[(4-methylmorpholin-2-yl)methyl]pyridine-4-carboxamide]	1 to 1000
Cn1ccc2ccc(-c3cc(Nc4ccccc4S(=O)(=O)N4CCNCC4)cc4nccnc34)cc21 [Example 15, 8-(1-Methyl-1H-indol-6-yl)-N-[2-(piperazine-1-sulfonyl)phenyl]quinoxalin-6-amine trifluoroacetate]	1000 to 10000
CS(=O)(=O)c1ccncc1Nc1cc(-c2ccc(NC(=O)C3CCCN3)cc2)c2nccnc2c1 (stereo not shown) [Example 164, N-(4-{7-[(4-methanesulfonylpyridin-3-yl)amino]quinoxalin-5-yl}phenyl)pyrrolidine-2-carboxamide]	10000 to 100000
Cn1cncc1CNC(=O)c1ccncc1Nc1cc(-c2ccc3ccn(C)c3c2)c2nccnc2c1 [Example 143, N-[(1-methyl-1H-imidazol-5-yl)methyl]-3-{[8-(1-methyl-1H-indol-6-yl)quinoxalin-6-yl]amino}pyridine-4-carboxamide]	1 to 1000
Cn1ccc2ccc(-c3cc(Nc4cc(Br)ccc4S(C)(=O)=O)cc4nccnc34)cc21 [Example 10, N-(5-Bromo-2-methanesulfonylphenyl)-8-(1-methyl-1H-indol-6-yl)quinoxalin-6-amine]	1 to 1000
Cn1ccc2ccc(-c3cc(Nc4cnccc4C(=O)Nc4ccccc4)cc4nccnc34)cc21 [Example 96, 3-{[8-(1-Methyl-1H-indol-6-yl)quinoxalin-6-yl]amino}-N-phenylpyridine-4-carboxamide]	1 to 1000
Cc1coc2ccc(-c3cc(Nc4cnccc4C(N)=O)cc4nccnc34)cc12 [Example 26, 3-{[8-(3-Methyl-1-benzofuran-5-yl)quinoxalin-6-yl]amino}pyridine-4-carboxamide]	1 to 1000
CN1CCC(NC(=O)c2ccccc2Nc2cc(-c3ccc4ccn(C)c4c3)c3nccnc3c2)C1 (stereo not shown) [Example 183, 2-{[8-(1-Methyl-1H-indol-6-yl)quinoxalin-6-yl]amino}-N-(1-methylpyrrolidin-3-yl)benzamide]	1 to 1000
CS(=O)(=O)c1ccncc1Nc1cc(-c2ccc3n[nH]nc3c2)c2nccnc2c1 [Example 118, 8-(1H-1,2,3-Benzotriazol-5-yl)-N-(4-methanesulfonylpyridin-3-yl)quinoxalin-6-amine]	1000 to 10000
CC(=O)N1CCN(c2ccc(S(C)(=O)=O)c(Nc3cc(-c4ccc5ccn(C)c5c4)c4nccnc4c3)c2)CC1 [Example 46, 1-[4-(4-Methanesulfonyl-3-{[8-(1-methyl-1H-indol-6-yl)quinoxalin-6-yl]amino}phenyl)piperazin-1-yl]ethan-1-one]	1000 to 10000
Cn1ccc2ccc(-c3cc(Nc4c[n+]([O-])ccc4C#N)cc4nccnc34)cc21 [Example 90, 4-Cyano-3-{[8-(1-methyl-1H-indol-6-yl)quinoxalin-6-yl]amino}pyridin-1-ium-1-olate]	1000 to 10000
COc1ccc(C)c(-c2cc(Nc3cnccc3S(C)(=O)=O)cc3nccnc23)c1 [Example 153, N-(4-Methanesulfonylpyridin-3-yl)-8-(5-methoxy-2-methylphenyl)quinoxalin-6-amine]	1000 to 10000
Cn1ccc2ccc(-c3cc(Nc4cc(-c5ncco5)ccc4S(C)(=O)=O)cc4nccnc34)cc21 [Example 94, N-[2-Methanesulfonyl-5-(1,3-oxazol-2-yl)phenyl]-8-(1-methyl-1H-indol-6-yl)quinoxalin-6-amine]	1 to 1000
CN1CCN(c2ccncc2Nc2cc(-c3ccc4c(ccn4C)c3)c3nccnc3c2)CC1 [Example 32, 8-(1-Methyl-1H-indol-5-yl)-N-[4-(4-methylpiperazin-1-yl)pyridin-3-yl]quinoxalin-6-amine]	1000 to 10000
Cn1ccc2cc(F)c(-c3cc(Nc4cnccc4S(C)(=O)=O)cc4nccnc34)cc21 [Example 73, 8-(5-Fluoro-1-methyl-1H-indol-6-yl)-N-(4-methanesulfonylpyridin-3-yl)quinoxalin-6-amine]	1 to 1000
Cn1ccc2ccc(-c3cc(Nc4ccc[nH]c4=O)cc4nccnc34)cc21 [Example 14, 3-{[8-(1-Methyl-1H-indol-6-yl)quinoxalin-6-yl]amino}pyridin-2-ol]	1 to 1000
Cn1cnc(-c2ccncc2Nc2cc(-c3ccc4ccn(C)c4c3)c3nccnc3c2)c1 [Example 83, N-[4-(1-Methyl-1H-imidazol-4-yl)pyridin-3-yl]-8-(1-methyl-1H-indol-6-yl)quinoxalin-6-amine]	1 to 1000
CN(c1cc(-c2ccc3ccn(C)c3c2)c2nccnc2c1)c1cnccc1C(=O)Nc1cncnc1 [Example 125, 3-{Methyl[8-(1-methyl-1H-indol-6-yl)quinoxalin-6-yl]amino}-N-(pyrimidin-5-yl)pyridine-4-carboxamide]	1000 to 10000
CN(C)c1nc2cc(-c3cc(Nc4cnccc4S(C)(=O)=O)cc4nccnc34)ccc2s1 [Example 201, 8-[2-(Dimethylamino)-1,3-benzothiazol-5-yl]-N-(4-methanesulfonylpyridin-3-yl)quinoxalin-6-amine]	10000 to 100000
Cn1ccc2ccc(-c3cc(Nc4cnccc4C(=O)Oc4ccnc(N)n4)cc4nccnc34)cc21 [Example 160, 2-Aminopyrimidin-4-yl3-{[8-(1-methyl-1H-indol-6-yl)quinoxalin-6-yl]amino}pyridine-4-carboxylate]	1 to 1000
CS(=O)(=O)c1ccncc1Nc1cc(-c2ccc3occ(CCl)c3c2)c2nccnc2c1 [Example 58, 8-[3-(Chloromethyl)-1-benzofuran-5-yl]-N-(4-methanesulfonylpyridin-3-yl)quinoxalin-6-amine]	10000 to 100000
COC(=O)c1ccc(S(C)(=O)=O)c(Nc2cc(-c3ccc4ccn(C)c4c3)c3nccnc3c2)c1 [Example 115, Methyl 4-methanesulfonyl-3-{[8-(1-methyl-1H-indol-6-yl)quinoxalin-6-yl]amino}benzoate]	1000 to 10000
Cn1ccc2ccc(-c3cc(Nc4cc(C#N)ccc4S(C)(=O)=O)cc4nccnc34)cc21 [Example 25, 4-Methanesulfonyl-3-{[8-(1-methyl-1H-indol-6-yl)quinoxalin-6-yl]amino}benzonitrile]	1 to 1000
CN1CCN(c2ccc(S(C)(=O)=O)c(Nc3cc(-c4ccc5ccn(C)c5c4)c4nccnc4c3)c2)CC1 [Example 45, N-[2-Methanesulfonyl-5-(4-methylpiperazin-1-yl)phenyl]-8-(1-methyl-1H-indol-6-yl)quinoxalin-6-amine]	1000 to 10000
Cn1ccc2ccc(-c3cc(Nc4cnccc4C(=O)O)cc4nccnc34)cc21 [Example 179, 3-{[8-(1-Methyl-1H-indol-6-yl)quinoxalin-6-yl]amino}pyridine-4-carboxylic acid]	1 to 1000
Cn1ccc2cc(-c3cc(Nc4cc(CN)ccc4S(C)(=O)=O)cc4nccnc34)ccc21 [Example 38, N-[5-(Aminomethyl)-2-methanesulfonylphenyl]-8-(1-methyl-1H-indol-5-yl)quinoxalin-6-amine]	10000 to 100000
Cn1ccc2ccc(-c3cc(Oc4cnccc4C#N)cc4nccnc34)cc21 [Example 47, 3-{[8-(1-Methyl-1H-indol-6-yl)quinoxalin-6-yl]oxy}pyridine-4-carbonitrile]	1 to 1000
